Consider 1 compound from patent publication US20090076130A1, “COMPOUNDS FOR THE INHIBITION OF HISTONE DEACETYLASE” (NATUREWISE BIOTECH & MEDICALS CORPORATION, priority 2007, published 2009).

In one assay the test system is cortical neurons. The assay can be described thus: Neurite outgrowth of cortical neurons from fetal rat neural stem cells. The assay is classed as cell-based, Wistar rat. The following applies: 0.63 μg/mL, 6 days, vs DMSO control. The protocol:
The growth medium for the NSCs (neural stem cells) and cortical neurons was prepared by adding penicillin G, streptomycin and 0.5 mM of L-glutamine into a B-27 supplemented neurobasal medium (Gibco). The unborn fetus was taken out of the fetal sac in the abdominal cavity of a 17-day pregnant Wistar rat under anesthesia. The cerebral tissue was removed from the fetus and treated with 0.1% trypsin solution at 25° C. for three minutes. After washing with PBS solution 3 times, the cells were dissociated by up and down mixing. The resulting solution was passed through a 70 μm Nylon cell strainer (Falcon) in order to obtain the filtrate that contained cerebral cells. The filtrate was centrifuged at 1000 rpm for 10 minutes and the supernatant was aspirated. The resulting pellet was resuspended in the growth medium prepared as stated above. The resulting suspension contained NSCs.
The cells obtained from the suspension were cultivated in 6-well plates coated with 30 μg/ml of poly-D-lysine (Sigma) at the density of 75 cells/mm^2. The cells were cultured at 37° C., 5% CO2 and 95% relative humidity. The growth media contained 0.63 μg/mL of NBM-HD-1 and the growth media with 1 μl of DMSO was used as the control. […]
After cultivation for 6 days, live cells were observed by microscope. The lengths of the neurites of the neurons in 6 different fields were measured and averaged. […]

The test system of a further assay is MCF-7 cancer cells. Nature of the assay: Cell cycle / DNA of MCF-7 cells by FACScan cytometry. Format: cell-based, human. The note with it: 72 hours. The protocol: (§1) 1×10^6 of rat C6 glioma cells were treated with various concentrations of NBM-HD-1 (0 μg/mL, 2.5 μg/mL, 5 μg/mL, and 10 μg/mL) for 72 hours. The treated cells were trysinized and collected. The cells were resuspended in 200 μL PBS and then fixed by adding 800 μL of cold 100% ethanol. The resulting cells were fixed overnight at −20°. The cell pellets were collected by centrifugation, resuspended in 1 mL of hypotonic buffer (0.5% Triton X-100 in PBS and 1 μg/mL RNase A), and incubated at 37° for 30 minutes. Then, 1 mL of PI solution (50 μg/mL) was added to the resulting cell pellets. The mixture was allowed to stand at 4° for 30 min. The DNA amounts of the cells were analyzed by FACScan Cytometry (Becton Dickinson) (see FIG. 2).
MCF-7 cancer cells (1×10^6) in a 100-mm dish were treated with various concentrations of NBM-HD-1 (0, 2.5, 5, and 10 μg/mL) or 4 mM sodium butyrate for 72 hours. The samples were prepared following the steps mentioned in [0063]. The DNA of the cells was then analyzed by FACScan cytometry (Becton Dickinson). […] The percentage of G0/G1 phase increased from 74.46 to 92.55 in a dose-dependent manner.

The next assay relates to p21. Nature of the assay: RT-PCR of p21 mRNA in MCF-7 cells. The assay is classed as cell-based, human. The note with it: different doses, 24 hours. How it is done:
The cell cycle related to p21 mRNA expression was examined by RT-PCR. The total RNAs were isolated from the treated MCF-7 cells and used in the RT reaction. cDNA (1 μl) was used as a template to amplify p21 gene by PCR. GAPDH was used as an internal control. […] In this experiment, MCF-7 cells were treated with different doses of NBM-HD-1 for 24 hours.

The next assay concerns HDAC. The assay can be described thus: HDAC Activity Assay Kit on nuclear extracts of treated C6 glioma cells. The following applies: nuclear protein of C6 cells treated 24 hours, fluorometric substrate. The assay is classed as cell-based, rat. The protocol: The C6 glioma cells were treated with different doses of NBM-HD-1 and sodium butyrate (SB). After 24 hours, the cells were harvested to extract the nuclear proteins by NucBuster™ Protein Extraction Kit (Novagen) as described by the manufacturer's instructions. These extracts were then used in HDAC Activity Assay Kit (Calbiochem) to analyze their HDAC (histone deacetylase) inhibition activities. The HDAC fluorometric substrate, which comprises an acetylated lysine side chain, was incubated with extracted nuclear protein first. Deacetylation of the substrate sensitized the substrate, so that, in the second step, treatment with the Lysine Developer produced a fluorophore. The fluorophore can easily be analyzed by using a fluorescence plate reader. […] Inhibition of HDAC has been implicated in the induction of differentiation in cancer cells. In this experiment, a well-known compound for HDAC inhibition, sodium butyrate, was used as a positive control.

A further assay has as its system rat C6 glioma cells. Nature of the assay: Cell cycle / DNA content of C6 glioma cells by FACScan cytometry. The assay is classed as cell-based. The note with it: 0, 2.5, 5, 10 μg/mL, 72 hours, PI staining. How it is done:
as §1

Another assay has as its system GFAP. Nature of the assay: GFAP expression in C6 glioma cells (immuno-fluorescent staining, RT-PCR). Format: cell-based, rat. How it is done: After the C6 glioma cells were incubated with 10 μg/mL NBM-HD-1 for 24 hours, they were fixed and analyzed by the traditional immuno-fluorescent staining method. Staining of glia was carried out by using glial-specific GFAP antibody (SIGMA) as the primary antibody and a fluorescence labeled rabbit immuno-globulin (SIGMA) as the secondary antibody to bind with the primary antibody. The cells which are GFAP-positive were excited by a specific light source to emit fluorescence. Also, the nuclei were stained with DAPI. […] In contrast with the control group, more GFAP proteins were detected in the photos of the cells being treated with 10 μg/mL of NBM-HD-1.
The GFAP mRNA expression was examined by RT-PCR.

For the compound `COc1cc2c(c(OC)c1CCC(C)(C)O)C(=O)C[C@@H](c1ccc(OC)c(OC)c1C/C=C(\C)CCCC(C)(C)O)O2` [NBM-HD-1], the “neurite outgrowth (length of the neurites)” value in the assay with cortical neurons is “could promote the neurite outgrowth”. For the same compound, the “cell cycle of MCF-7 cells” value in the assay on MCF-7 cancer cells (0, 2.5, 5, 10 μg/mL) is on record as “arrested on the G0/G1 phase in a dose-dependent manner”. Also, the “S and G2/M phases of the cells” value in the assay on MCF-7 cancer cells (MCF-7, 0, 2.5, 5, 10 μg/mL) was “significantly decreased both S and G2/M phases of the cells in a dose-dependent manner”. Moreover, the “p21 mRNA expression” value in the assay on p21 is “induced the expression of p21 in a dose-dependent manner”. The HDAC activity entry in the assay on HDAC is on record as “significantly inhibits HDAC activity”. Besides, the “cell cycle of C6 glioma cells” value in the assay on rat C6 glioma cells was “cell cycle arrest on the G0/G1 phase in a dose-dependent manner”. The “GFAP expression (immuno-fluorescent staining)” value in the assay on GFAP (10 μg/mL, 24 hours) is reported as “can induce the GFAP expression of C6 glioma cancer cells”. For the same compound, the “GFAP mRNA expression” value in the assay with GFAP (RT-PCR) was “increased in a dose-dependent manner”.
